Laboratory results from patent publication US20020183383A1, “Pharmaceutical compositions” (priority 2001, published 2002).

Columns and labels:
[1] = system: subjects with primary hypercholesterolemia; experiment: Multicenter, double-blind, placebo-controlled, parallel study of lipid (LDL-C, TC, HDL-C, TG) lowering efficacy of once-daily pravastatin 40-160 mg; assay type: in vivo, human; settings: for HDL-C % Δ, adjusted percent change from baseline (ANCOVA) / LDL-C (calculated) % Δ, adjusted percent change from baseline (ANCOVA) / TC % Δ, adjusted percent change from baseline (ANCOVA) / TG % Δ, adjusted percent change from baseline (ANCOVA) / increase in HDL-C / mean reduction in TC / mean reduction in TG: Week 6; for mean reduction in LDL-C: 6 weeks of treatment
Procedure: A Multicenter, Double-Blind, Placebo-Controlled, Parallel Study to Determine the LDL-C Lowering Efficacy of Pravastatin Administered Once Daily Over the Dosage Range of 40 mg Through 160 mg.
(§1) Objectives: The primary objective of this study was to evaluate the dose-related cholesterol (LDL-C) lowering efficacy of pravastatin 40 mg, 80 mg and 160 mg after 6 weeks of once-daily oral administration in subjects with primary hypercholesterolemia. Secondary objectives were: 1) to evaluate the dose-related changes in serum total cholesterol (TC), high-density lipoprotein cholesterol (HDL-C), and triglycerides (TG) concentrations after 6 weeks of once-daily oral administration of pravastatin 40 mg, 80 mg and 160 mg in subjects with primary hypercholesterolemia; 2) to estimate the dose-related changes in serum LDL-C, TC, HDL-C, and TG concentrations after 2 weeks and 4 weeks of once-daily oral administration of pravastatin 40 mg, 80 mg and 160 mg in subjects with primary hypercholesterolemia; and 3) to ascertain the safety and tolerability of the treatment regimens after 6 weeks of once-daily oral administration of pravastatin 40 mg, 80 mg and 160 mg in subjects with primary hypercholesterolemia.
Duration of Treatment: 6 weeks
(§2) Study Design and Methodology: This study was a multicenter, randomized, double-blind placebo-controlled, parallel design trial to determine the LDL-C lowering efficacy of pravastatin over a dose range of 40-160 mg in subjects with primary hypercholesterolemia. After at least 2 weeks of dietary stabilization and discontinuation of any previous lipid-lowering agents for a minimum of 4 weeks, subjects entered into a 4-week single-blind placebo lead-in period. At the end of the placebo lead-in period, subjects with mean serum LDL-C≧160 mg/dL and mean serum TG≦500 mg/dL were randomized (1:1:1:1) to one of four treatment groups: pravastatin 40 mg, pravastatin 80 mg, pravastatin 160 mg or placebo. Blinded treatment was administered once-daily at bedtime for 6 weeks.
Number of Subjects: 190 randomized; 189 received randomized study drug, 184 completed the study.
Diagnosis and Main Criteria for Inclusion: Consenting men, or postmenopausal and surgically sterile women, aged 18 through 65 years were eligible to enroll in the study if they met the following criteria: 1) mean serum LDL-C≧160 mg/dL (the LDL-C concentration of the lower qualifying specimen were to be within 15% of the higher qualifying specimen) and 2) mean serum TG≦500 mg/dL obtained from two consecutive qualifying specimens.
Test Product, dose, mode of administration: pravastatin, 40 mg tablets, oral
Primary Efficacy Outcome Measure:
Change from baseline in calculated serum LDL-C at Week 6 of double-blind treatment.
Secondary Efficacy Outcome Measures:
Change from baseline in serum LDL-C at Weeks 2 and 4 of double blind treatment.
Change from baseline in serum TC, HDL-C, and TG at Weeks 2,4, and 6 of double-blind treatment.
Analyses of covariance with terms for treatment and baseline.
A contrast of the dose groups from the analysis of covariance model.

[2] = system: subjects with primary hypercholesterolemia; experiment: Safety and tolerability in the same 6-week clinical study (adverse events, laboratory analyses); assay type: in vivo, human
Procedure: as §1, §2
Medical history, physical examinations, laboratory analyses, and clinical adverse events (AEs).

[3] = pravastatin 40 mg once daily, Week 6, N=45
[4] = pravastatin 80 mg once daily, Week 6, N=48
[5] = pravastatin 160 mg once daily, Week 6, N=48
[6] = pravastatin 40 mg once daily, 6 weeks, N=46
[7] = pravastatin 80 mg once daily, 6 weeks, N=49
[8] = pravastatin 160 mg once daily, 6 weeks, N=48

SMILES: CC[C@H](C)C(=O)O[C@H]1C[C@H](O)C=C2C=C[C@H](C)[C@H](CC[C@@H](O)C[C@@H](O)CC(=O)O)[C@H]21 [Pravastatin, Pravastatin sodium]
- absolute reduction in LDL cholesterol as the dose was doubled ([1]; dose doubled from 40 mg to 80 mg, and again from 80 mg to 160 mg): greater than 6%
- additional LDL-C lowering with every doubling of the dose ([1]; doses of 40-160 mg once daily, 6 weeks): 8%
- LDL-C (calculated) Week 6 Mean ([1]; pravastatin 40 mg once daily oral at bedtime, Week 6, N=45): 139.0 mg/dL
- HDL-C % Δ, adjusted percent change from baseline (ANCOVA) ([1]; pravastatin 40 mg once daily): 11.4%
- LDL-C (calculated) % Δ, adjusted percent change from baseline (ANCOVA) ([1]; pravastatin 40 mg once daily): −28.6%
- TC % Δ, adjusted percent change from baseline (ANCOVA) ([1]; pravastatin 40 mg once daily): −20.0%
- TG % Δ, adjusted percent change from baseline (ANCOVA) ([1]; pravastatin 40 mg once daily): −15.8%
- HDL-C Week 6 Mean [1, 3]: 52.8 mg/dL
- TC Week 6 Mean [1, 3]: 219.8 mg/dL
- TG Week 6 Mean [1, 3]: 140.9 mg/dL
- mean reduction in LDL-C ([1]; pravastatin 40 mg): 29%
- increase in HDL-C ([1]; pravastatin 40 mg): 11.4%
- mean reduction in TC ([1]; pravastatin 40 mg): 20%
- mean reduction in TG ([1]; pravastatin 40 mg): 16%
- LDL-C (calculated) Week 6 Mean ([1]; pravastatin 80 mg once daily oral at bedtime, Week 6, N=48): 124.7 mg/dL
- HDL-C % Δ, adjusted percent change from baseline (ANCOVA) ([1]; pravastatin 80 mg once daily): 8.4%
- LDL-C (calculated) % Δ, adjusted percent change from baseline (ANCOVA) ([1]; pravastatin 80 mg once daily): −36.7%
- TC % Δ, adjusted percent change from baseline (ANCOVA) ([1]; pravastatin 80 mg once daily): −26.3%
- TG % Δ, adjusted percent change from baseline (ANCOVA) ([1]; pravastatin 80 mg once daily): −14.2%
- HDL-C Week 6 Mean [1, 4]: 45.0 mg/dL
- TC Week 6 Mean [1, 4]: 201.6 mg/dL
- TG Week 6 Mean [1, 4]: 158.8 mg/dL
- mean reduction in LDL-C ([1]; pravastatin 80 mg): 37%
- increase in HDL-C ([1]; pravastatin 80 mg): 8.4%
- mean reduction in TC ([1]; pravastatin 80 mg): 26%
- mean reduction in TG ([1]; pravastatin 80 mg): 14%
- LDL-C (calculated) Week 6 Mean ([1]; pravastatin 160 mg once daily oral at bedtime, Week 6, N=47): 108.4 mg/dL
- HDL-C % Δ, adjusted percent change from baseline (ANCOVA) ([1]; pravastatin 160 mg once daily): 9.6%
- LDL-C (calculated) % Δ, adjusted percent change from baseline (ANCOVA) ([1]; pravastatin 160 mg once daily): −45.2%
- TC % Δ, adjusted percent change from baseline (ANCOVA) ([1]; pravastatin 160 mg once daily): −34.2%
- TG % Δ, adjusted percent change from baseline (ANCOVA) ([1]; pravastatin 160 mg once daily): −26.9%
- HDL-C Week 6 Mean [1, 5]: 46.4 mg/dL
- TC Week 6 Mean [1, 5]: 181.3 mg/dL
- TG Week 6 Mean [1, 5]: 132.0 mg/dL
- mean reduction in LDL-C ([1]; pravastatin 160 mg): 45%
- increase in HDL-C ([1]; pravastatin 160 mg): 9.6%
- mean reduction in TC ([1]; pravastatin 160 mg): 34%
- mean reduction in TG ([1]; pravastatin 160 mg): 27%
- subjects with CK elevation >4×ULN ([2]; 40 mg pravastatin (one subject)): 2.2%
- subjects discontinued due to gastrointestinal events considered possibly related to study drug ([2]; 160 mg pravastatin treatment group (two subjects)): 1.4%
- tolerability / safety in words ([2]; 40, 80 and 160 mg once daily for 6 weeks): appears safe and well tolerated
- deaths or serious adverse events in the study ([2]; all treatment groups, 6 weeks): no deaths or serious adverse events
- marked abnormalities (MAs) for ALT and AST ([2]; all treatment groups, 6 weeks): No marked abnormalities
- Number of randomized subjects with ADE (adverse drug experience), n (%) [2, 6]: 5 (10.9%)
- Number of randomized subjects with AE (total), n (%) [2, 6]: 19 (43%)
- Number of randomized subjects with Discontinuations, n (%) [2, 6]: 0
- Number of randomized subjects with SAE (serious adverse event) [2, 6]: 0
- Number of randomized subjects with ADE (adverse drug experience), n (%) [2, 7]: 14 (28.6%)
- Number of randomized subjects with AE (total), n (%) [2, 7]: 24 (49.0%)
- Number of randomized subjects with Discontinuations, n (%) [2, 7]: 0
- Number of randomized subjects with SAE (serious adverse event) [2, 7]: 0
- frequency of adverse events by body system ([2]; pravastatin 160 mg dose): higher frequency of adverse events in the gastrointestinal and respiratory body systems
- Number of randomized subjects with ADE (adverse drug experience), n (%) [2, 8]: 17 (35.4%)
- Number of randomized subjects with AE (total), n (%) [2, 8]: 29 (60.4%)
- Number of randomized subjects with Discontinuations, n (%) [2, 8]: 2 (1.4%)
- Number of randomized subjects with SAE (serious adverse event) [2, 8]: 0
